Results as given in PubChem BioAssay AID1845202 (Molecular Pharmacology Branch, DTP, NCI, 2023).

Test system: DMS 114 tumor spheroids, viability % test/control
Test: Anticancer human tumor DMS 114 cell line growth inhibition;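 note: spheroids exposed to compounds for 7 days before read-out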;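 for viability, T/C: luminescence used as a proxy for viable cells; 100% = DMSO vehicle control viability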
Details: spheroids with HUVEC and MSC; for IC50: curve of first compound; for viability, T/C: stronger effect = lower value
Summary of the method: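 Complex spheroids of malignant cells with endothelial cells and mesenchymal stem cells; agents alone or combined, from near clinical Cmax (or 10 microM if unknown) down in half-log steps, 0.25% DMSO final.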

[1] = second compound 30 pM, first compound 0.0316 µM
[2] = second compound 30 pM, first compound 0.1 µM
[3] = second compound 30 pM, first compound 0.316 µM
[4] = second compound 30 pM, first compound 1 µM
[5] = second compound 30 pM, first compound 3.16 µM
[6] = second compound 30 pM, first compound 10 µM
[7] = second compound 94.9 pM, first compound 0.0316 µM
[8] = second compound 94.9 pM, first compound 0.1 µM
[9] = second compound 94.9 pM, first compound 0.316 µM
[10] = second compound 94.9 pM, first compound 1 µM
[11] = second compound 94.9 pM, first compound 3.16 µM
[12] = second compound 94.9 pM, first compound 10 µM
[13] = second compound 0.0003 µM, first compound 0.0316 µM
[14] = second compound 0.0003 µM, first compound 0.1 µM
[15] = second compound 0.0003 µM, first compound 0.316 µM
[16] = second compound 0.0003 µM, first compound 1 µM
[17] = second compound 0.0003 µM, first compound 3.16 µM
[18] = second compound 0.0003 µM, first compound 10 µM
[19] = second compound 0.000949 µM, first compound 0.0316 µM
[20] = second compound 0.000949 µM, first compound 0.1 µM
[21] = second compound 0.000949 µM, first compound 0.316 µM
[22] = second compound 0.000949 µM, first compound 1 µM
[23] = second compound 0.000949 µM, first compound 3.16 µM
[24] = second compound 0.000949 µM, first compound 10 µM
[25] = second compound 0.003 µM, first compound 0.0316 µM
[26] = second compound 0.003 µM, first compound 0.1 µM
[27] = second compound 0.003 µM, first compound 0.316 µM
[28] = second compound 0.003 µM, first compound 1 µM
[29] = second compound 0.003 µM, first compound 3.16 µM
[30] = second compound 0.003 µM, first compound 10 µM

COc1cc(C)[nH]c(=O)c1CN1CCc2c(Cl)cc(C(OC)C3COC3)c(Cl)c2C1=O (stereo not given) + COc1cc2c(cc1O)CCNC21CSC2c3c(OC(C)=O)c(C)c4c(c3C(COC1=O)N1C(O)C3Cc5cc(C)c(OC)c(O)c5C(C21)N3C)OCO4
IC50 (second compound 30 pM): > 10000 nM | IC50 (second compound 94.9 pM): > 10000 nM | IC50 (second compound 0.0003 µM): < 31.6 nM | IC50 (second compound 0.000949 µM): < 31.6 nM | IC50 (second compound 0.003 µM): < 31.6 nM | viability, T/C [1]: 118% | viability, T/C [2]: 90.5% | viability, T/C [3]: 83.5% | viability, T/C [4]: 82.1% | viability, T/C [5]: 74.8% | viability, T/C [6]: 69.6% | viability, T/C [7]: 89.1% | viability, T/C [8]: 85.9% | viability, T/C [9]: 86.7% | viability, T/C [10]: 66.2% | viability, T/C [11]: 65.1% | viability, T/C [12]: 56% | viability, T/C [13]: 38.9% | viability, T/C [14]: 43.3% | viability, T/C [15]: 41.4% | viability, T/C [16]: 34.7% | viability, T/C [17]: 28.9% | viability, T/C [18]: 26.6% | viability, T/C [19]: 2.76% | viability, T/C [20]: 4.07% | viability, T/C [21]: 4.68% | viability, T/C [22]: 3.28% | viability, T/C [23]: 2.76% | viability, T/C [24]: 1.64% | viability, T/C [25]: 0.25% | viability, T/C [26]: 0.27% | viability, T/C [27]: 0.26% | viability, T/C [28]: 0.24% | viability, T/C [29]: 0.24% | viability, T/C [30]: 0.29%

[2H]c1nc(C)nc([2H])c1-c1cc(NC[C@@H](C)c2cccc3c(C(=O)NC)ccnc23)ncn1 + COc1cc2c(cc1O)CCNC21CSC2c3c(OC(C)=O)c(C)c4c(c3C(COC1=O)N1C(O)C3Cc5cc(C)c(OC)c(O)c5C(C21)N3C)OCO4
IC50 (second compound 30 pM): > 10000 nM | IC50 (second compound 94.9 pM): > 10000 nM | IC50 (second compound 0.0003 µM): < 31.6 nM | IC50 (second compound 0.000949 µM): < 31.6 nM | IC50 (second compound 0.003 µM): < 31.6 nM | viability, T/C [1]: 105% | viability, T/C [2]: 113% | viability, T/C [3]: 106% | viability, T/C [4]: 109% | viability, T/C [5]: 107% | viability, T/C [6]: 97.6% | viability, T/C [7]: 111% | viability, T/C [8]: 107% | viability, T/C [9]: 108% | viability, T/C [10]: 111% | viability, T/C [11]: 98.3% | viability, T/C [12]: 98% | viability, T/C [13]: 44.4% | viability, T/C [14]: 38.9% | viability, T/C [15]: 39% | viability, T/C [16]: 42.1% | viability, T/C [17]: 37.4% | viability, T/C [18]: 42.4% | viability, T/C [19]: 2.57% | viability, T/C [20]: 4.99% | viability, T/C [21]: 2.84% | viability, T/C [22]: 4.1% | viability, T/C [23]: 3.19% | viability, T/C [24]: 3.15% | viability, T/C [25]: 0.21% | viability, T/C [26]: 0.22% | viability, T/C [27]: 0.17% | viability, T/C [28]: 0.21% | viability, T/C [29]: 0.16% | viability, T/C [30]: 0.28%

Cc1sc2c(c1C)C(c1ccc(Cl)cc1)=NC(CC(=O)Nc1ccc(O)cc1)c1nnc(C)n1-2 (stereo not given) + COc1cc2c(cc1O)CCNC21CSC2c3c(OC(C)=O)c(C)c4c(c3C(COC1=O)N1C(O)C3Cc5cc(C)c(OC)c(O)c5C(C21)N3C)OCO4
IC50 (second compound 30 pM): 165 nM | IC50 (second compound 94.9 pM): 97.3 nM | IC50 (second compound 0.0003 µM): < 9.49 nM | IC50 (second compound 0.000949 µM): < 9.49 nM | IC50 (second compound 0.003 µM): < 9.49 nM | viability, T/C (second compound 30 pM, first compound 0.00949 µM): 107% | viability, T/C (second compound 30 pM, first compound 0.03 µM): 102% | viability, T/C (second compound 30 pM, first compound 0.0949 µM): 65.1% | viability, T/C (second compound 30 pM, first compound 0.3 µM): 33.3% | viability, T/C (second compound 30 pM, first compound 0.949 µM): 5.12% | viability, T/C (second compound 30 pM, first compound 3 µM): 3.29% | viability, T/C (second compound 94.9 pM, first compound 0.00949 µM): 101% | viability, T/C (second compound 94.9 pM, first compound 0.03 µM): 80.1% | viability, T/C (second compound 94.9 pM, first compound 0.0949 µM): 55.4% | viability, T/C (second compound 94.9 pM, first compound 0.3 µM): 12.1% | viability, T/C (second compound 94.9 pM, first compound 0.949 µM): 5.83% | viability, T/C (second compound 94.9 pM, first compound 3 µM): 1.91% | viability, T/C (second compound 0.0003 µM, first compound 0.00949 µM): 41.7% | viability, T/C (second compound 0.0003 µM, first compound 0.03 µM): 27.1% | viability, T/C (second compound 0.0003 µM, first compound 0.0949 µM): 13.1% | viability, T/C (second compound 0.0003 µM, first compound 0.3 µM): 5.79% | viability, T/C (second compound 0.0003 µM, first compound 0.949 µM): 1.67% | viability, T/C (second compound 0.0003 µM, first compound 3 µM): 0.76% | viability, T/C (second compound 0.000949 µM, first compound 0.00949 µM): 3.12% | viability, T/C (second compound 0.000949 µM, first compound 0.03 µM): 1.58% | viability, T/C (second compound 0.000949 µM, first compound 0.0949 µM): 1.35% | viability, T/C (second compound 0.000949 µM, first compound 0.3 µM): 0.73% | viability, T/C (second compound 0.000949 µM, first compound 0.949 µM): 0.39% | viability, T/C (second compound 0.000949 µM, first compound 3 µM): 0.19% | viability, T/C (second compound 0.003 µM, first compound 0.00949 µM): 0.2% | viability, T/C (second compound 0.003 µM, first compound 0.03 µM): 0.19% | viability, T/C (second compound 0.003 µM, first compound 0.0949 µM): 0.17% | viability, T/C (second compound 0.003 µM, first compound 0.3 µM): 0.13% | viability, T/C (second compound 0.003 µM, first compound 0.949 µM): 0.16% | viability, T/C (second compound 0.003 µM, first compound 3 µM): 0.3%
